Laboratory results as given in patent US20260374739A1, “SMALL MOLECULAR WEIGHT CHEMICAL COMPOUND TO ANTAGONIZE EPH-EPHRIN TETRAMERIZATION AND INHIBIT BIDIRECTIONAL SIGNALING” (THE BOARD OF REGENTS OF THE UNIVERSITY OF TEXAS SYSTEM, priority 2022, published 2026).

Key:
[1] = test system: Zymosan-induced mechanical pain in mice; assay: Zymosan inflammatory pain, mechanical; format: in vivo, mouse; conditions: PO; for mechanical pain ratio: vehicle about 3
Experimental: An alternative and potentially faster pain model using Zymosin (an inflammatory agent like CFA) to induce inflammatory pain was tested. […] Mice were first acclimated to the pain testing set ups and then subjected to baseline mechanical and thermal pain measurements. Early in the morning the following day, the left hind paws were injected subcutaneously with 30 μL of Zymosan (5 mg/ml in PBS; Z4250, Sigma-Aldrich). Two hours after the Zymosan injection, the left hind paws were assessed for thermal pain using Hargreaves device (2-4 hr), and then left paws tested for mechanical pain using VF filaments (4-6 hr), and then again for thermal pain (6-8 hr). Data from two independent experiments were pooled to increase the n values for the three different genotypes. […] Thermal pain increased in all group following Zymosan injury as indicated by a decreased average response time to the infrared heat source in all animals assessed, and the level of pain intensified from the 2-4 hr testing period to the 6-8 hr period.
Inflammatory pain was induced by subcutaneous injection of 30 μl of 5 mg/ml Zymosan into the right hind paws of 12 wild-type adult male mice (5-6 months age, 129×1/SvJ background) that in previous days were acclimated to the testing chambers and assessed to obtain baseline pain measurements. After 15 min, mice were orally dosed with either vehicle only (97% PBS/3% DMSO) or with 20, 10, or 5 mg/kg of A20 (2×·HCl salt in vehicle), 3 mice for each condition. Two hours after Zymosan injection, the right hind paws were assessed for thermal pain using Hargreaves device (2-4 hr), then mice were orally dosed again with vehicle only or A20 chemicals, and then right paws tested for mechanical pain using VF filaments (4-6 hr), and then again for thermal pain (6-8 hr).
Inflammatory pain was induced by subcutaneous injection of 30 μl of 5 mg/ml Zymosan into the left hind paws of 9 wild-type adult males (5-6 months age, 129/CD1 mixed background) that in previous days were acclimated to the testing chambers and assessed to obtain baseline pain measurements. After 15 min, mice were orally dosed with either vehicle only (97% PBS/3% DMSO) or with 20 mg/kg of 3511-I (2×·HCl salt in vehicle), or 20 mg/kg BQPB4 (3×·HCl salt in 97% sunflower seed oil/3% DMSO), 3 mice for each condition. Two hours after Zymosan injection, the left […] hind paws were assessed for mechanical pain using VF filaments (2-4 hr), then mice were orally dosed again with vehicle only or A20 chemicals, and then left hind paws tested for thermal pain using Hargreaves device (4-6 hr), and then again for mechanical pain (6-8 hr).

[2] = in vitro metabolic stability, murine microsomal assay; format: in vitro ADME, mouse; conditions: for metabolic stability: murine microsomal, compared to A20; for half-life: mouse, liver microsomes, murine microsomal assay
EphB2 = EphB2 phosphorylation in mouse brain after dosing (immunoprecipitation/immunoblot); format: in vivo; conditions: 4 days
Experimental: Wild-type mice aged 10-12 weeks were IP injected every 12 hr for four days with vehicle (PBS) or 10 mg/kg of 2×·HCl salt forms of A20 (in PBS), A20-I (in PBS), or 3511-I, in 94% PBS/6% DMSO) for a total of 8 injections. Exactly 2 hr after final injection of A20 chemical, brains were dissected and frozen at −80 °C. Whole brain protein lysates were then prepared in a Dounce homogenizer using 5 ml PLC lysis buffer, and 1 ml of lysate was used for immunoprecipitation (IP) with 1 μg goat anti-EphB2 antibody, followed by immunoblot (IB) analysis with goat anti-EphB2, rabbit anti-phosphoEphB1/B2 (pEphB1/B2), and mouse anti-EphrinB2 antibodies using appropriate HRP conjugated secondary antibodies and chemiluminescent detection methods.
FIG. 79A depicts an illustrative immunoblot showing expression of EphB2, phospho-EphB1/B2, and EphrinB2 (co-IP) in the mouse brains. […] The level of co-immunoprecipitated EphrinB2 from the brains of A20 chemical injected animals was generally lower as indicated by fainter bands. FIGS. 79B and 79C show quantification of band intensities (number of photons detected) to obtain ratios of pEphB/EphB2 as a measure of EphB2 receptor activation levels (FIG. 79B) and ratios of EphrinB2/EphB2 as a measure of how much EphrinB2 is co-immunoprecipitated with the EphB2 receptor (FIG. 79C).
Whole brain protein lysates were prepared from wild-type mice either oral dosed (PO) or injected (IP) for 4 days with vehicle (PBS) or 20 mg/kg of 2×·HCl salt drugs of A20 or A20-I every 12 hr, with last ([…]) dose staggered such that brain dissections happened 2 hr after final drug dosing. EphB2 was immunoprecipitated from 1 ml of protein lysate using 1 μg of goat anti-EphB2 antibodies and then precipitated proteins immunoblotted with goat anti-EphB2, rabbit anti-pTyr1000, and mouse 4G10 antibodies using appropriate HRP conjugated secondary antibodies and chemiluminescent detection methods.
The pTry1000 and 4G10 immunoblots (FIG. 80B and FIG. 80C, respectively), which both recognize tyrosine phosphorylated proteins and are readouts for the activated EphB2 tyrosine kinase catalytic domain, both show strong tyrosine phosphorylation of the receptor in 3 of 4 vehicle (V) control lanes. […] The results shown here also highlight our finding that when EphB2 is tyrosine phosphorylated and catalytically activate in the intact brain, the protein migrates much slower in the SDS-PAGE gels with apparent migration in distinct bands-220-260 kDa (green arrows in FIGS. 80B and 80C), as opposed to the typical migration of unphosphorylated EphB2 protein at 125 kDa (black arrow in FIG. 80A).

Compound | mechanical pain [1] | mechanical pain ratio [1] | metabolic stability ([2]; listed as A20-1) | metabolic stability ([2]; listed as A20-I) | activated phosphorylated EphB2 in brain (EphB2; IP 10 mg/kg every 12 hr) | activated phosphorylated EphB2 in brain (EphB2; PO or IP 20 mg/kg every 12 hr) | half-life [2]
Oc1c(Br)cc(CN2CCN(c3ccc(Br)cc3)CC2)c2cccnc12 [Compound 28, 7-bromo-5-((4-(4-bromophenyl)piperazin-1-yl)methyl)quinolin-8-ol] | essentially no enhanced mechanical pain sensitivity | ~1 |  |  |  |  | 
Oc1c(I)cc(CN2CCOCC2)c2cccnc12 [Compound 7, 7-iodo-5-(morpholinomethyl)quinolin-8-ol] |  |  | longer in vitro half-life | increased in vitro metabolic stability compared to A20 | generally lower level of activated phosphorylated EphB2 in the brain | lower levels of activated phosphorylated EphB2 in the brain | 
COc1ccccc1N1CCN(Cc2cc(I)c(O)c3ncccc23)CC1 [Compound 71, 7-iodo-5-((4-(2-methoxyphenyl)piperazin-1-yl)methyl)quinolin-8-ol] | somewhat blunted mechanical pain response |  |  |  | generally lower level of activated phosphorylated EphB2 in the brain |  | 
Oc1ccc(CN2CCOCC2)c2cccnc12 [Compound 1, 5-(morpholinomethyl)quinolin-8-ol] |  |  |  |  |  |  | 22 min
COc1ccccc1N1CCN(Cc2cc(Br)c(O)c3ncccc23)CC1 [Compound 70, 7-bromo-5-((4-(2-methoxyphenyl)piperazin-1-yl)methyl)quinolin-8-ol] |  |  |  |  |  |  | 136 min
Oc1c(Br)cc(CN2CCOCC2)c2cccnc12 [Compound 5, 7-bromo-5-(morpholinomethyl)quinolin-8-ol] | significant reductions in both mechanical and thermal pain | ~1 |  |  | generally lower level of activated phosphorylated EphB2 in the brain | lower levels of activated phosphorylated EphB2 in the brain | 224 min
